Reference: patent publication EP0334551A1, “Anti-neoplastic formulations” (priority 1988, dated 1989)
Where two headings read alike, the source gives them in different places.

Key:
[1] = in all the infusion fluids studied; cited from earlier work
[2] = aqueous solution of unlyophilised carboplatin in sterile water, at room temperature
Protocol: The solutions obtained were filled into amber moulded 20 ml vials and sealed with Teflon-lined caps, West 541. The above two solutions were stored at room temperature for 15 months, then tested for stability. […] The solution was filled into 20 ml amber moulded vials and sealed with grey chlorobutyl rubber caps. […] Each solution was filled into 6 ml clear drawn vials and sealed with Teflon lined caps.

[3] = reconstituted solutions of the lyophilised powder, cited from earlier work

| Compound | stable (time) [1] | stable (time) [2] | stable (time) ([3]; at room temperature) | stable (time) ([3]; under refrigeration) |
| --- | --- | --- | --- | --- |
| iproplatin | 24 h |  |  |  |
| [NH2][Pt]1([NH2])[O]C(=O)C2(CCC2)C(=O)[O]1 [carboplatin, cis-Diamine[1,1-cyclobutanedicarboxylato-(2-)-O,O′]platinum [SP-4-27]] | 24 h | at least 18 months | 8 h | 24 h |
